Reference: patent US20090081279A1, “Skin Dressings” (priority 2005, published 2009)

Columns and labels:
[1] = under normal conditions; cited from earlier work
moist skin = assay: Skin reddening (dermal vasodilation) after applying dried PVA layer with pre-generated GSNO onto moist skin; format: in vivo
Source text: GSNO can be released from the layer simply by applying the layer onto a moist surface (e.g. wound bed). Once released, GSNO undergoes a slow decomposition to generate nitric oxide. The release of GSNO from the layer is relatively rapid.

[2] = Effect of pH on production/decomposition of GSNO in aqueous solution of potassium nitrite and L-glutathione; format: physicochemical
Protocol: The following reagents were prepared: • Reagent 1: Na-phosphate buffer (pH 7.4, 0.1 M) • Reagent 2: Griess reagent: 20 mg of N-(1-Naphthyl)ethylendiamine dihydrochloride (NADD)+500 mg of sulphanilamide dissolved in 2 mL of DMSO. (N.B. This solution is light sensitive and should be kept in the dark as much as possible) • Reagent 3: Mercuric chloride (10 mM) in DMSO (13.58 mg of HgCl2 in 5 mL of DMSO)
The six-step procedure set out below was then followed: • 1. Dispense 1.5 mL of Reagent 1 into a plastic cuvette • 2. Add 200 μL of the sample (i.e. sample in which GSNO concentration is to be determined) • 3. Add 1.17 mL of DI water • 4. Add 100 μL of Reagent 2 • 5. Add 30 μL of Reagent 3 and give the solution a good mix • 6. Read absorbance of the resulting mixture at 496 nm in 10 min.
The concentration of GSNO can be calculated from the absorbance reading using the molar absorption coefficient for GSNO=12,500 M^−1 cm^−1.
The rate of the GSNO production and subsequent decomposition in solutions containing potassium nitrite (5 mM) and L-glutathione (5 mM) was studied at pH 3 (citrate-phosphate buffer, 0.1 M), pH 5 (citrate-phosphate buffer, 0.1 M) and pH 7 (phosphate buffer, 0.1 M).

[3] = Stability of GSNO in dried PVA layer; format: physicochemical; details: in the dried layer of PVA, especially if stored in a moisture-free atmosphere
Protocol: In one preferred embodiment of this type, the dressing comprises a layer of dried PVA containing pre-generated S-nitrosothiol. The layer is formed from PVA, a source of nitrite (preferably potassium nitrite) and a thiol (preferably L-glutathione). In a typical example of this embodiment both of these additives are added to the PVA solution prior to the drying. S-nitrosothiol (GSNO in the preferred case) is generated within the layer during the drying step. Nitrosothiols are known to be rather unstable in aqueous solutions. Nevertheless, GSNO was found very stable in the dried layer of PVA, especially if stored in a moisture-free atmosphere.

[4] = under normal conditions; cited from earlier work; remark: listed apart in the source

| Initial production of GSNO ([2]; pH 5 compared with pH 3 (citrate-phosphate buffer, 0.1 M)) | Production of GSNO ([2]; pH 7 (phosphate buffer, 0.1 M), potassium nitrite 5 mM, L-glutathione 5 mM) | Stability of GSNO [3] | SMILES | Maximum solubility in water [1] | Reversibility of skin reddening (moist skin; after removal of the patch) | Time to reddening of the skin due to dermal vasodilation (moist skin; dried PVA layer with pre-generated GSNO applied onto moist skin) [min] | Stability of GSNO produced ([2]; pH 5 compared with pH 3) | Time to total (100%) decomposition [4] |
| --- | --- | --- | --- | --- | --- | --- | --- | --- |
|  |  |  | [N]=O [NO, Nitric oxide] | approximately 1.7 mM |  |  |  |  |
| slower at pH 5 compared with pH 3 | No production | very stable | N[C@@H](CCC(=O)N[C@@H](CSN=O)C(=O)NCC(=O)O)C(=O)O [GSNO, S-nitrosoglutathione] |  | totally reversible | ≤ 1 | slightly higher at pH 5 compared with that at pH 3 | hours/days |
